Results reported in paper PMC6369734, “Spy vs. spy: selecting the best reporter for ^19F NMR competition experiments” (Chemical Communications (Cambridge, England), 2019).
Read-outs that look alike come from different tables or passages of the source. Each block holds one compound with its values, some of them ahead of it.

Legend:
[1] = molecular target: T1, VHL (VBC complex: pVHL54-213, eloB1-104, eloC17-112) (Homo sapiens, UniProt P40337); experiment: Surface plasmon resonance (SPR) steady-state binding to immobilised biotinylated AviVBC
T1 construct: equimolar complex of pVHL54-213, eloB1-104 and; made in house; host or cells: E. coli
Method: The KD of each compound to VHL was determined by surface plasmon resonance (SPR) experiments.
3. Protein expression, purification and biotinylation
The VHL E3 ligase is a multi-protein complex composed of five proteins: VHL protein (pVHL), elongin B (eloB), elongin C (eloC), Cullin-2 (Cul2) and Ring-box protein 1 (Rbx1).[3] Since the compounds developed in this work bind solely to the VHL protein, the VBC complex (equimolar complex of pVHL54-213, eloB1-104 and eloC17-112) was used in all experiments, as it can be readily expressed in E. coli with high yields,[4] while the full E3 ligase would require baculovirus-insect cells expression system.[5] The expression and purification of VBC was performed as described previously by our group[2] and employed directly in all NMR experiments.
For the surface plasmon resonance (SPR) experiments, a VBC complex containing an AviTagTM in the N-terminus of eloB (AviVBC) was purified using the same procedure described for VBC. The modified eloB/eloC expression plasmid was previously developed in-house by Dr. Michael Roy and kindly shared. The AviVBC complex was site-specifically biotinylated in the AviTag using the GST-BirA method previously described by […]
4. Surface plasmon resonance experiments
The SPR experiments were performed with a Biacore T200 instrument (GE Healthcare). All measurements were performed at 20 °C with buffer containing 10 mM HEPES, pH 7.5, 150 mM NaCl, 1 mM TCEP, 0.005% (v/v) Tween® 20 and 2% (v/v) dimethyl sulfoxide (DMSO). Biotinylated AviVBC (~0.5 μM) was immobilised at 22 °C onto a Series S sensor chip SA (GE Heathcare) to levels of approximately 3500-4000 response units […]
Solutions of each spy molecule were prepared in buffer at concentrations based on previous structure-activity relationship studies of VHL ligands (K D expected in the nanomolar range for structures like spy molecules 16 and 22, or in the milimolar range for spy molecules similar to 1 and 9). From this first screen, the binding affinities were roughly estimated using the Biacore T200 evaluation software (GE Healthcare), then measurements were repeated using concentrations above and below the KD obtained in the first round to generate better curves for fitting the data accurately. Contact and dissociation times varied across the different compounds tested, but in […]
dissociated from the surface in less than sixty seconds.
Data analysis was performed using the steady state responses of the double-referenced sensorgrams (raw data subtracted from blank and reference surface injections) obtained for each concentration tested. These responses were plotted against the respective concentrations and the data fitted to a 1: 1 binding model u sing the Biacore T200 evaluation software and the following equation: […]
Where Req is the steady-state response at a given concentration C. Deviations in Req were corrected by adding an ‘offset’ term to the equation. KD is the dissociation constant to be determined and RMAX is the maximum response expected for a given compound according to the equation below:
Where n is the stoichiometry of the interaction ( in this case, n = 1) and RProtein is the immobilization level of protein. MWCompound and MWProtein are the molecular weights of compound and protein, respectively. Sensorgrams and fitting parameters for all spy molecules can be found in section 7.

[2] = molecular target: T2, VHL (VBC complex) (Homo sapiens, UniProt P40337); experiment: 19F CPMG NMR transverse relaxation rate (R2) and R2 contrast (C2) of spy molecule with and without protein; type: binding
T2 construct: equimolar complex of pVHL54-213, eloB1-104 and; made in house; host or cells: E. coli
Excerpt: Due to the large CSA of fluorine and the significant differences in the fluorine isotropic chemical shift (δF) between the free and bound states, the transverse relaxation rate (R2) is a well-established sensitive parameter to detect ligand binding.[4] Therefore, fluorine NMR experiments including a Carr–Purcell–Meiboom–Gill (CPMG) spin-echo filter[10] before acquisition were employed to monitor ligand binding to VHL by measuring peak intensity, as changes in other NMR parameters, such as chemical shift and peak width, were not as significant. The R2 values of the CF3 peak of each compound in the absence and in the presence of protein were determined by performing multiple ^19F CPMG experiments varying the CPMG filter (Fig. 2a). To quantify the shift in R2 upon binding, the R2 contrast (C2)[11] was determined. Ideally, a good spy molecule should have a large increase in R2 (fast relaxation) when protein is present, resulting in a large assay window for the competition experiments (Fig. 2b).
5. Measurement of the transverse relaxation rates by 19F CPMG NMR
All the NMR experiments were performed in a 500 MHz Bruker AVANCE N MR spectrometer equipped with a CPQCI -F cryoprobe. To measure the transverse relaxation rates (R 2), a solution of each spy molecule at 100 μM was prepared in 50 mM potassium phosphate monobasic (KH2PO4), pH 7.5, 100 mM NaCl, 1 mM TCEP, 2% (v/v) DMSO, 20% D2O and 10 µM trifluoroacetic acid (TFA). For each solution, 19F CPMG experiments […]
Due to the fast relaxation of molecules 21 and 22, these experiments were repeated with shorter CPMG filters (50, 100, 150, 200, 300, 400, 700 and 1000 ms). The fluorine peaks were integrated and plotted against the resp ective CPMG filters. The R 2 relaxation rates were obtained from fitting the data as a n exponential decay (GraphPad Prism 6) according to the equation below: [7]
Where I(t) is the 19F signal intensity or integral, t is the total CPMG filter in seconds, I(0) is the signal intensity when t = 0. To obtain the R2 upon addition of prot ein, all the experiments above were repeated in presence of VBC at 1 µM. Experiments were performed as triplicates and the R 2 contrasts (C2) were obtained according to the equation below: [8]
Where R2Free is the R2 obtained for the spy molecule free in solution and R2Observed is the R2 obtained with the spy molecule in presence of VBC. The raw data, fitting, R2 and C2 values for each spy molecule can be found in section 8.1. For the R2 measurements using molecule 19 at varied concentrations of spy molecule and protein, see section 8.2 . For the R2 measurements using spy molecules 6 and 11 (used to generate figures S 2, S3 and S4) see

[3] = SPR steady-state fit, supplement section 7, read-out: KD (Biacore T200 fit)
[4] = SPR, 20 °C, steady-state 1:1 fit, footnote b values fitted because RMAX was not reached experimentally, read-out: K D, SPR
[5] = Spy molecule 100 μM + VBC 1 μM, supplement 8.1
[6] = Spy molecule 100 μM, no protein
[7] = Spy molecule 19 at 10 µM, VBC 0.125 μM
[8] = Spy molecule 19 at 10 µM, VBC 0.250 μM
[9] = Spy molecule 19 at 10 µM, VBC 0.500 μM
[10] = Spy molecule 19 at 10 µM, VBC 1.000 μM
[11] = Spy molecule 19 at 25 µM, VBC 0.125 μM
[12] = Spy molecule 19 at 25 µM, VBC 0.250 μM
[13] = Spy molecule 19 at 25 µM, VBC 0.500 μM
[14] = Spy molecule 19 at 25 µM, VBC 1.000 μM
[15] = Spy molecule 19 at 50 µM, VBC 0.125 μM
[16] = Spy molecule 19 at 50 µM, VBC 0.250 μM
[17] = Spy molecule 19 at 50 µM, VBC 0.500 μM
[18] = Spy molecule 19 at 50 µM, VBC 1.000 μM
[19] = spy concentration not given, VBC 0.125 μM
[20] = spy concentration not given, VBC 0.250 μM
[21] = spy concentration not given, VBC 0.500 μM
[22] = spy concentration not given, VBC 1.000 μM

T1 sequence (P40337 54-213): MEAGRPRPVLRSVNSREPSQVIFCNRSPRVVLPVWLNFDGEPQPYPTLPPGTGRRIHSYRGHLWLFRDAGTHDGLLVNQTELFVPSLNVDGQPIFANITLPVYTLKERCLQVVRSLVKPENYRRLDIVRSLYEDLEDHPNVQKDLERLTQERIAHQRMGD
T1 sequence (Q15370 1-104 partner limits assumed): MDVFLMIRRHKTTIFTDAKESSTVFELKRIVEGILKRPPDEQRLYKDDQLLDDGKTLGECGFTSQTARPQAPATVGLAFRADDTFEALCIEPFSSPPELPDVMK
T1 sequence (Q15369 17-112 partner limits assumed): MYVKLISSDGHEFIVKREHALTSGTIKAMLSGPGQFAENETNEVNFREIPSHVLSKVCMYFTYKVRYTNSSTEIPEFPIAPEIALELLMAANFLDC
T2 sequence (P40337 54-213): as the sequence (P40337 54-213) above
T2 sequence (Q15370 1-104 partner limits assumed): as the sequence (Q15370 1-104 partner limits assumed) above
T2 sequence (Q15369 17-112 partner limits assumed): as the sequence (Q15369 17-112 partner limits assumed) above

Kd [1, 3]: 407 µM
Kd [1, 4]: 407 ± 5 µM
R2 ([2]; Spy molecule 100 μM + VBC 1 μM): 1.847 ± 0.033 s⁻¹
R2 contrast – C2 [2, 5]: 28.2 ± 2.3%
R2 [2, 6]: 1.326 ± 0.025 s⁻¹
Structure (SMILES): CC(C)(C)CC(=O)N1C[C@H](O)C[C@H]1C(=O)NCc1ccc(Br)c(C(F)(F)F)c1 [Compound 3]

Kd [1, 4]: 1350 ± 94 µM
R2 ([2]; Spy molecule 100 μM + VBC 1 μM): 2.596 ± 0.046 s⁻¹
R2 contrast – C2 [2, 5]: 51.9 ± 2.1%
R2 [2, 6]: 1.249 ± 0.018 s⁻¹
Structure (SMILES): CC(=O)N1C[C@H](O)C[C@H]1C(=O)NCc1ccc(Br)cc1C(F)(F)F [Compound 10]

binding kinetics / dissociation rates by SPR ([1]; SPR): too high to be determined accurately
Kd [1, 3]: 1.14 µM
Kd [1, 4]: 1.14 ± 0.12 µM
R2 ([2]; Spy molecule 100 μM + VBC 1 μM): 1.637 ± 0.028 s⁻¹
R2 contrast – C2 [2, 5]: 7.6 ± 2.4%
R2 [2, 6]: 1.512 ± 0.029 s⁻¹
Structure (SMILES): CC(=O)NC(C(=O)N1CC(O)CC1C(=O)NCc1ccc(Br)cc1C(F)(F)F)C(C)(C)C (centres unmarked) [Compound 12]

Kd [1, 3]: 145 µM
Kd [1, 4]: 145 ± 29 µM
R2 ([2]; Spy molecule 100 μM + VBC 1 μM): 5.096 ± 0.186 s⁻¹
R2 contrast – C2 [2, 5]: 70.1 ± 4.5%
R2 [2, 6]: 1.526 ± 0.041 s⁻¹
R2 ([2]; Spy molecule 19 at 10 µM, VBC 0.000 μM): 1.464 ± 0.096 s⁻¹
R2 [2, 7]: 2.346 ± 0.193 s⁻¹
R2 contrast – C2 [2, 7]: 35.0 ± 8.9%
R2 [2, 8]: 2.807 ± 0.131 s⁻¹
R2 contrast – C2 [2, 8]: 45.6 ± 5.3%
R2 [2, 9]: 4.288 ± 0.304 s⁻¹
R2 contrast – C2 [2, 9]: 64.4 ± 8.5%
R2 [2, 10]: 7.974 ± 0.727 s⁻¹
R2 contrast – C2 [2, 10]: 80.9 ± 11.7%
R2 ([2]; Spy molecule 19 at 25 µM, VBC 0.000 μM): 1.582 ± 0.049 s⁻¹
R2 [2, 11]: 2.107 ± 0.095 s⁻¹
R2 contrast – C2 [2, 11]: 27.6 ± 5.1%
R2 [2, 12]: 2.811 ± 0.156 s⁻¹
R2 contrast – C2 [2, 12]: 45.7 ± 6.3%
R2 [2, 13]: 4.008 ± 0.200 s⁻¹
R2 contrast – C2 [2, 13]: 61.9 ± 5.9%
R2 [2, 14]: 6.934 ± 0.348 s⁻¹
R2 contrast – C2 [2, 14]: 78.0 ± 6.4%
R2 ([2]; Spy molecule 19 at 50 µM, VBC 0.000 μM): 1.475 ± 0.059 s⁻¹
R2 [2, 15]: 1.969 ± 0.071 s⁻¹
R2 contrast – C2 [2, 15]: 22.5 ± 4.2%
R2 [2, 16]: 2.316 ± 0.168 s⁻¹
R2 contrast – C2 [2, 16]: 34.1 ± 7.9%
R2 [2, 17]: 3.857 ± 0.121 s⁻¹
R2 contrast – C2 [2, 17]: 60.4 ± 3.8%
R2 [2, 18]: 6.424 ± 0.262 s⁻¹
R2 contrast – C2 [2, 18]: 76.2 ± 5.2%
R2 ([2]; spy concentration not given, VBC 0.000 μM): 1.392 ± 0.101 s⁻¹
R2 [2, 19]: 2.337 ± 0.335 s⁻¹
R2 contrast – C2 [2, 19]: 34.7 ± 15.3%
R2 [2, 20]: 3.678 ± 0.489 s⁻¹
R2 contrast – C2 [2, 20]: 58.5 ± 15.5%
R2 [2, 21]: 4.255 ± 0.566 s⁻¹
R2 contrast – C2 [2, 21]: 64.1 ± 15.8%
R2 [2, 22]: 7.063 ± 1.128 s⁻¹
R2 contrast – C2 [2, 22]: 78.4 ± 20.3%
Structure (SMILES): O=C(NCc1ccc(Br)cc1)C1CC(O)CN1C(=O)CC(F)(F)F (centres unmarked) [Compound 19]
